According to patent publication US10138238B2, “Pesticidally active polycyclic derivatives with sulfur containing substituents” (Syngenta Participations AG, priority 2015, dated 2018):

Key:
Type in all cases: in vivo
[1] = system: Plutella xylostella (Diamond Back Moth); experiment: Example B6: Plutella xylostella, artificial diet, L2 larvae; details: 120 h, application rate of 200 ppm, 5 days after infestation, read-out: effect in at least one of the two categories (mortality or growth inhibition)
Experimental: (§1) 24-well microtiter plates with artificial diet were treated with aqueous test solutions prepared from 10'000 ppm DMSO stock solutions by pipetting. After drying, the plates were infested with L2 larvae (10 to 15 per well). The samples were assessed for mortality and growth inhibition in comparison to untreated samples 5 days after infestation. The following compounds gave an effect of at least 80% in at least one of the two categories (mortality or growth inhibition) at an application rate of 200 ppm: P1, P2, P3, P4, P6, P8, P9, P10, P11, P12, P13, P14 and P15.

[2] = system: Euschistus heros (Neotropical Brown Stink Bug); experiment: Example B3: Euschistus heros, soybean leaves, N2 nymphs; details: 120 h, application rate of 200 ppm, 5 days after infestation, read-out: effect in at least one of the two categories (mortality or growth inhibition)
Experimental: Soybean leaves on agar in 24-well microtiter plates were sprayed with aqueous test solutions prepared from 10'000 ppm DMSO stock solutions. After drying the leaves were infested with N2 nymphs. The samples were assessed for mortality and growth inhibition in comparison to untreated samples 5 days after infestation. The following compounds gave an effect of at least 80% in at least one of the two categories (mortality or growth inhibition) at an application rate of 200 ppm: • P1, P3, P8, P9, P10, P13, P14, and P15

[3] = system: Spodoptera littoralis (Egyptian Cotton Leaf Worm); experiment: Example B13: Breakpoint (BP80) against Spodoptera littoralis; details: lowest concentration which gives 80% larval mortality; larval feeding/contact
Experimental: (§2) Cotton leaf discs were placed onto agar in 24-well microtiter plates and sprayed with aqueous test solutions prepared from 10'000 ppm DMSO stock solutions. After drying the leaf discs were infested with five L1 larvae. The samples were assessed for mortality, anti-feeding effect, and growth inhibition in comparison to untreated samples 3 days after infestation. Control of Spodoptera littoralis by a test sample is given when at least one of the categories mortality, anti-feedant effect, and growth inhibition is higher than the untreated sample.
(§3) Insecticidal action against Diabrotica balteata (Corn root worm), Plutella xylostella (Diamond black moth), and Spodoptera littoralis (Egyptian cotton leaf worm). The tests were carried out as described in biological examples B2, B6 and B7, respectively, with the larval feeding/contact activity being reported as Breakpoint (BP80) values in parts per million (i.e. the lowest concentration which gives 80% larval mortality).

[4] = system: Diabrotica balteata (Corn Root Worm); experiment: Example B2: Diabrotica balteata, maize sprouts, L2 larvae; details: 96 h, application rate of 200 ppm, 4 days after infestation, read-out: effect in at least one of the two categories (mortality or growth inhibition)
Experimental: (§4) Maize sprouts placed onto an agar layer in 24-well microtiter plates were treated with aqueous test solutions prepared from 10'000 ppm DMSO stock solutions by spraying. After drying, the plates were infested with L2 larvae (6 to 10 per well). The samples were assessed for mortality and growth inhibition in comparison to untreated samples 4 days after infestation. The following compounds gave an effect of at least 80% in at least one of the two categories (mortality or growth inhibition) at an application rate of 200 ppm: P1, P2, P3, P4, P5, P6, P7, P8, P9, P10, P11, P12, P13, P14, and P15.

[5] = system: Spodoptera littoralis (Egyptian Cotton Leaf Worm); experiment: Example B7: Spodoptera littoralis, cotton leaf discs, L1 larvae; details: foliar, 72 h, application rate of 200 ppm, 3 days after infestation
Experimental: as §2

[6] = system: Plutella xylostella (Diamond black moth); experiment: Example B13: Breakpoint (BP80) against Plutella xylostella; details: lowest concentration which gives 80% larval mortality; larval feeding/contact
Experimental: as §1, §3

[7] = system: Diabrotica balteata (Corn Root Worm); experiment: Example B13: Breakpoint (BP80) against Diabrotica balteata; details: lowest concentration which gives 80% larval mortality; larval feeding/contact
Experimental: as §4, §3

[8] = system: Diabrotica balteata (Corn Root Worm); experiment: Example B14: Breakpoint (BP80) against Diabrotica balteata; details: lowest concentration which gives 80% larval mortality; Table B14
Experimental: as §4
Insecticidal action against Diabrotica balteata (Corn root worm). The test were carried out as described in biological example B6 with the larval feeding contact activity being reported as Breakpoint (BP80) values in parts per million (i.e. the lowest concentration which gives 80% larval mortality).

[9] = system: Bemisia tabaci (Cotton White Fly); experiment: Example B1: Bemisia tabaci feeding/contact activity; details: 144 h, application rate of 200 ppm, adult white flies, 6 days after incubation
Experimental: Cotton leaf discs were placed on agar in 24-well microtiter plates and sprayed with aqueous test solutions prepared from 10'000 ppm DMSO stock solutions. After drying the leaf discs were infested with adult white flies. The samples were checked for mortality 6 days after incubation.

[10] = system: Spodoptera littoralis (Egyptian Cotton Leaf Worm); experiment: Example B8: Spodoptera littoralis systemic activity; details: 144 h, test rate of 12.5 ppm, lettuce, 6 days after infestation, read-out: effect in at least one of the three categories (mortality, anti-feeding, or growth inhibition)
Text: Test compounds were applied by pipette from 10'000 ppm DMSO stock solutions into 24-well plates and mixed with agar. Lettuce seeds were placed onto the agar and the multi well plate was closed by another plate which contained also agar. After 7 days the compound was absorbed by the roots and the lettuce grew into the lid plate. The lettuce leaves were then cut off into the lid plate. Spodoptera eggs were pipetted through a plastic stencil onto a humid gel blotting paper and the lid plate was closed with it. The samples were assessed for mortality, anti-feedant effect and growth inhibition in comparison to untreated samples 6 days after infestation. The following compounds gave an effect of at least 80% in at least one of the three categories (mortality, anti-feeding, or growth inhibition) at a test rate of 12.5 ppm: • P10, P13, P14 and P15.

[11] = system: Tetranychus urticae (Two-Spotted Spider Mite); experiment: Example B9: Tetranychus urticae feeding/contact activity; details: 192 h, application rate of 200 ppm, mixed population (mobile stages), 8 days after infestation, read-out: mortality
Experimental: Bean leaf discs on agar in 24-well microtiter plates were sprayed with aqueous test solutions prepared from 10'000 ppm DMSO stock solutions. After drying the leaf discs were infested with a mite population of mixed ages. The samples were assessed for mortality on mixed population (mobile stages) 8 days after infestation.

[12] = system: Myzus persicae (Green Peach Aphid); experiment: Example B4: Myzus persicae feeding/contact activity; details: 144 h, application rate of 200 ppm, 6 days after infestation
Experimental: Sunflower leaf discs were placed onto agar in a 24-well microtiter plate and sprayed with aqueous test solutions prepared from 10'000 ppm DMSO stock solutions. After drying, the leaf discs were infested with an aphid population of mixed ages. The samples were assessed for mortality 6 days after infestation.

SMILES	percent effect (mortality or growth inhibition) at 200 ppm [1] [%]	percent effect (mortality or growth inhibition) at 200 ppm [2] [%]	BP80 Values Spodoptera littoralis [3] [ppm]	percent effect (mortality or growth inhibition) at 200 ppm [4] [%]	percent control (mortality, anti-feedant effect or growth inhibition) at 200 ppm [5] [%]	BP80 Values Plutella xylostella [6] [ppm]	BP80 Values Diabrotica balteata [7] [ppm]	BP80 Values Diabrotica balteata [8] [ppm]	mortality at 200 ppm [9] [%]	percent effect (mortality, anti-feeding or growth inhibition) at 12.5 ppm [10] [%]	mortality at 200 ppm [11] [%]	mortality at 200 ppm [12] [%]
CCS(=O)(=O)c1ccc(-c2ccc(Cl)cc2)nc1-c1nc2cc(C(F)(F)F)ncc2n1C [Compound P1, 2-[6-(4-chlorophenyl)-3-ethylsulfonyl-2-pyridyl]-3-methyl-6-(trifluoromethyl)imidazo[4,5-c]pyridine]	≥ 80	≥ 80	12	≥ 80	≥ 80	12	3					
CCS(=O)(=O)c1ccc(/C=C/c2ccccc2C(F)(F)F)nc1-c1nc2cc(C(F)(F)F)ncc2n1C [Compound P2, 2-[3-ethylsulfonyl-6-[(E)-2-[2-(trifluoromethyl)phenyl]vinyl]-2-pyridyl]-3-methyl-6-(trifluoromethyl)imidazo[4,5-c]pyridine]	≥ 80			≥ 80	≥ 80							
CCS(=O)(=O)c1cc(C(F)(F)F)c(-c2ccc(C(F)(F)F)cc2)nc1-c1nc2cc(C(F)(F)F)ncc2n1C [Compound P4, 2-[3-ethylsulfonyl-5-(trifluoromethyl)-6-[4-(trifluoromethyl)phenyl]-2-pyridyl]-3-methyl-6-(trifluoromethyl)imidazo[4,5-c]pyridine]	≥ 80			≥ 80	≥ 80			10				
CCS(=O)(=O)c1cc(C(F)(F)F)c(-c2cccc(C(F)(F)F)c2)nc1-c1nc2cc(C(F)(F)F)ncc2n1C [Compound P5]				≥ 80	≥ 80			10				
CCS(=O)(=O)c1cc(C(F)(F)F)c(-c2ccccc2Cl)nc1-c1nc2cc(C(F)(F)F)ncc2n1C [Compound P6]	≥ 80			≥ 80	≥ 80							
CCS(=O)(=O)c1ccc(-c2cc(F)cc(F)c2)nc1-c1nc2cc(C(F)(F)F)ncc2n1C [Compound P8, 2-[6-(3,5-difluorophenyl)-3-ethylsulfonyl-2-pyridyl]-3-methyl-6-(trifluoromethyl)imidazo[4,5-c]pyridine]	≥ 80	≥ 80		≥ 80	≥ 80							
CCS(=O)(=O)c1ccc(-n2ccc(C(F)(F)F)n2)nc1-c1nc2cc(SC(F)(F)F)ncc2n1C [Compound P9, 2-[3-ethylsulfonyl-6-[3-(trifluoromethyl)pyrazol-1-yl]-2-pyridyl]-3-methyl-6-(trifluoromethylsulfanyl)imidazo[4,5-c]pyridine]	≥ 80	≥ 80		≥ 80	≥ 80				≥ 80			
CCS(=O)(=O)c1ccc(-n2ccc(Cl)n2)nc1-c1nc2cc(SC(F)(F)F)ncc2n1C [Compound P11]	≥ 80			≥ 80	≥ 80							
CCS(=O)(=O)c1ccc(C2CC2)nc1-c1nc2cc(Br)ncc2n1C [Compound P12, 6-bromo-2-(6-cyclopropyl-3-ethylsulfonyl-2-pyridyl)-3-methyl-imidazo[4,5-c]pyridine]	≥ 80			≥ 80	≥ 80							
CCS(=O)(=O)c1ccc(C2CC2)nc1-c1nc2cc(SC(F)(F)F)ncc2n1C [Compound P13, 2-(6-cyclopropyl-3-ethylsulfonyl-2-pyridyl)-3-methyl-6-(trifluoromethylsulfanyl)imidazo[4,5-c]pyridine]	≥ 80	≥ 80		≥ 80	≥ 80				≥ 80	≥ 80	≥ 80	≥ 80
CCS(=O)(=O)c1ccc(C2CC2)nc1-c1nc2cc(C(F)(F)F)nnc2n1C [Compound P14, 6-(6-cyclopropyl-3-ethylsulfonyl-2-pyridyl)-7-methyl-3-(trifluoromethyl)imidazo[4,5-c]pyridazine]	≥ 80	≥ 80		≥ 80	≥ 80				≥ 80	≥ 80		≥ 80
CCS(=O)(=O)c1ccc(C2CC2)nc1-c1nc2cc(C(F)(F)F)ncc2n1C [Compound P15, 2-(6-cyclopropyl-3-ethylsulfonyl-2-pyridyl)-3-methyl-6-(trifluoromethyl)imidazo[4,5-c]pyridine]	≥ 80	≥ 80		≥ 80	≥ 80					≥ 80		≥ 80
CCS(=O)(=O)c1cc(C(F)(F)F)cnc1-c1nc2cc(C(F)(F)F)ncc2n1C [Compound V12.01, reference compound]								16				
CCS(=O)(=O)c1cccnc1-c1nc2cc(C(F)(F)F)ncc2n1C [Compound V12.03, reference compound]			250			250	16					
